Results taken from patent US20180092894A1, “TREATMENT OF EOSINOPHILIC INFLAMMATORY DISEASE” (Northwestern University, priority 2016, published 2018).

Columns and labels:
Type in all cases: cell-based, human
[1] = system: IL-13-induced eotaxin-3 protein secretion in BEAS-2B cells; assay: IL-13-induced eotaxin-3 protein secretion in BEAS-2Bs (ELISA); details: for effect on IL-13-induced eotaxin-3 protein secretion: 2 h pretreatment (1-50 μM), IL-13 5 ng/ml 48 h
Protocol: (§1) BEAS-2B, a human bronchial epithelial cell line transformed with a hybrid adenovirus 12-simian virus 40 was obtained from ATCC (CRL-9609, Manassas, Va.). Primary HNECs were collected by epithelial scraping of IT and NP and cultured. For cytokine (Peprotech, Rocky Hill, N.J.) stimulation, submerged cultured cells were treated with 1-100 ng/ml IL-13, 10 ng/ml IFN-γ, 100 ng/ml TNF or 50 ng/ml IL-17 for 6 h or 48 h. To study the effects of PPIs (Sigma-Aldrich, St Louis, Mo.) on cytokine-induced chemokines, cells were pretreated for 2 h with acid-activated omeprazole (0.1-50 μM) or other PPIs: lansoprazole, rabeprazole, pantoprazole, and esomeprazole (1-50 μM) prior to stimulation with 5 ng/ml IL-13. Additionally, SCH-28080 (1-50 μM; Sigma-Aldrich) was used with the same protocol. In experiments altering extracellular K^+ concentration ([K^+]e), modified Ringer's solution that contained different contents of K^+ (0-11.2 mM KCl, Table 4) was used as culture media. For mRNA stability assessment, actinomycin D (3 μg/ml, Sigma-Aldrich) was used and eotaxin-3 mRNA was measured using real-time PCR. Supernatants, whole cell lysates, and total RNAs were harvested for further analysis.
(§2) Eotaxin-1, eotaxin-2, and eotaxin-3 protein concentrations in supernatants were determined with the appropriate ELISA kits.

[2] = system: IL-13-induced intracellular alkalinization in BEAS-2B cells (ngH,K-ATPase); assay: Intracellular pH (pHi) imaging, pHrodo Green, IL-13-stimulated BEAS-2Bs; details: up to 1 h after IL-13, spectrofluorometry
Protocol: The pH-sensitive dye, pHrodo® Green AM intracellular pH indicator (Life Technologies) that increases its fluorescence with decreasing pHi was used (ref 39; incorporated by reference in its entirety). Cells cultured in glass bottom microwell dishes (MatTek, Ashland, Mass.) were pre-treated with omeprazole or vehicle prior to 6 h IL-13 stimulation. Then cells were incubated with dye (5 μM) with live cell imaging solution (Life Technologies) at 37° C. for 30 minutes per manufacturer's instructions. Spinning disk confocal microscopy for live cells imaging was performed with Andor XDi Revolution (Andor Technologies, Belfast, UK). Fluorescence intensity was measured in 150 cells using Image J software (National Institutes of Health, Bethesda, Md.). For kinetic experiments, fluorescence intensity of cells cultured in 96-well plates with omeprazole, SCH-28080 or matched vehicle was measured at various times before and after IL-13 stimulation up to 1 h using the SpectraMax® Gemini EM Microplate Spectrofluorometer (Molecular devices, Sunnyvale, Calif.) at 485/538 nm (excitation/emission).

[3] = system: IFN-γ-induced CXCL-10 (IP-10); assay: IFN-γ-induced CXCL10 (IP-10) mRNA expression in BEAS-2B cells; details: PPI 5 μM 2 h, IFN-γ 10 ng/ml 6 h
Protocol: (§3) FIG. 9. […] Cells were pretreated with various PPIs for 2 h and stimulated for 6 h with IFN-γ (10 ng/ml), TNF (100 ng/ml) or IL-17 (50 ng/ml). IFN-γ-induced CXCL10 (IP-10), TNF-α-induced eotaxin-1, and IL-17-induced CXCL1 mRNA expression levels in total RNA from cells were measured by using real-time PCR. Data represent means±SEM compared with vehicle-treated/cytokine-stimulated cells. O, omeprazole; L, lansoprazole; R, rabeprazole; P, pantoprazole; E, esomeprazole all at 5 μM
as §1
(§4) mRNA levels of eotaxin-1, eotaxin-2, eotaxin-3, CXCL1, CXCL10, ATP12A, and ATP4A in total RNAs isolated from cells were measured using quantitative real-time PCR. Western blots were performed to assess total signal transducer and activator of transcription 6 (STATE), phosphorylated-STAT6 (pSTAT6) and ATP12A protein in whole cell lysates (ref. 38; incorporated by reference in its entirety).

TNF-α-induced eotaxin-1 = TNF-α-induced eotaxin-1 mRNA expression in BEAS-2B cells; details: PPI 5 μM 2 h, TNF 100 ng/ml 6 h
Protocol: as §3, §1, §4

IL-17-induced CXCL-1 = assay: IL-17-induced CXCL1 mRNA expression in BEAS-2B cells; details: PPI 5 μM 2 h, IL-17 50 ng/ml 6 h
Protocol: as §3, §1, §4

[4] = system: IL-13-induced eotaxin-3 protein secretion in HNECs; assay: IL-13-induced eotaxin-3 protein secretion in HNECs (ELISA)
Protocol: as §1, §2

pSTAT6 = assay: IL-13-induced STAT6 phosphorylation in BEAS-2Bs (Western blot)
Protocol: FIGS. 6A-6D. Effects of omeprazole on IL-13-induced STAT6 phosphorylation and eotaxin-3 mRNA stability. FIG. 6A, In IL-13-stimulated BEAS-2Bs with omeprazole or vehicle, pSTAT6 and total STAT6 protein expression were measured by using Western blots. FIG. 6B, Semi-quantitative densitometry data for A (Mean±SEM, n=3-6). FIG. 6C, Experimental protocol for eotaxin-3 mRNA stability assessment using real-time PCR. FIG. 6D, Relative eotaxin-3 mRNA expression levels following treatment with actinomycin D and/or omeprazole. mRNA levels of eotaxin-1, eotaxin-2, eotaxin-3, CXCL1, CXCL10, ATP12A, and ATP4A in total RNAs isolated from cells were measured using quantitative real-time PCR. Western blots were performed to assess total signal transducer and activator of transcription 6 (STATE), phosphorylated-STAT6 (pSTAT6) and ATP12A protein in whole cell lysates (ref. 38; incorporated by reference in its entirety).

[5] = 5 μM omeprazole, 2 h pretreatment, IL-13 48 h

| SMILES | effect on IL-13-induced eotaxin-3 protein secretion [1] | IL-13-induced intracellular alkalinization, kinetic studies [2] | IFN-γ-induced CXCL-10 (IP-10) mRNA expression [3] | TNF-α-induced eotaxin-1 mRNA expression (TNF-α-induced eotaxin-1) | IL-17-induced CXCL-1 mRNA expression (IL-17-induced CXCL-1) | lowest concentration significantly inhibiting IL-13-induced eotaxin-3 protein secretion [1] | IL-13-induced eotaxin-3 protein secretion was reduced [1, 5] | lowest concentration significantly inhibiting IL-13-induced eotaxin-3 protein secretion [4] | IL-13-induced eotaxin-3 protein secretion was reduced [4, 5] | IL-13-induced pSTAT6 (pSTAT6) |
| --- | --- | --- | --- | --- | --- | --- | --- | --- | --- | --- |
| Cc1nc2c(OCc3ccccc3)cccn2c1CC#N [SCH-28080] | significantly inhibited | blunted | – | – | – | – | – | – | – | – |
| COc1ccc2nc([S@@+]([O-])Cc3ncc(C)c(OC)c3C)[nH]c2c1 [esomeprazole, S-5-methoxy-2-{(4-methoxy-3,5 dimethylpyridin-2-yl)methylsufinyl]-3H-benzoimidazole] | dose-dependent inhibitory effects | – | did not inhibit | did not inhibit | did not inhibit | – | – | – | – | – |
| Cc1c(OCC(F)(F)F)ccnc1C[S+]([O-])c1nc2ccccc2[nH]1 (stereo not shown) [lansoprazole] | dose-dependent inhibitory effects | – | did not inhibit | did not inhibit | did not inhibit | – | – | – | – | – |
| COc1ccc2[nH]c([S+]([O-])Cc3ncc(C)c(OC)c3C)nc2c1 (stereo not shown) [omeprazole, 5- or 6-methoxy-2-{[(4-methoxy-3,5-dimethylpyridin-2-yl)methyl]sulfinyl}-1H-ben-zimidazole] | – | – | did not inhibit | did not inhibit | did not inhibit | 5 µM | 57.9% | 1 µM | 37.1% | not significantly inhibited |
| COc1ccnc(C[S+]([O-])c2nc3ccc(OC(F)F)cc3[nH]2)c1OC (stereo not shown) [pantoprazole] | – | – | did not inhibit | did not inhibit | did not inhibit | – | – | – | – | – |
| COCCCOc1ccnc(C[S+]([O-])c2nc3ccccc3[nH]2)c1C (stereo not shown) [rabeprazole, 2-([4-(3-methoxypropoxy)-3-methylpyridin-2-yl]methylsulfinyl)-1H-benzo(d)-imidazole] | dose-dependent inhibitory effects | – | did not inhibit | did not inhibit | did not inhibit | – | – | – | – | – |
